Six compounds from patent US6936585B2, “Corticotropin releasing factor 2 receptor agonists” (priority 2002, dated 2005) can be followed below.

pEC50: −log10 of the molar value. Ends that are not written are not given here. Peptide text beside a SMILES is read from it.

Assay [1] has as its target T1, CRF1R (Homo sapiens, UniProt P34998).
T1 sequence (P34998 24-415): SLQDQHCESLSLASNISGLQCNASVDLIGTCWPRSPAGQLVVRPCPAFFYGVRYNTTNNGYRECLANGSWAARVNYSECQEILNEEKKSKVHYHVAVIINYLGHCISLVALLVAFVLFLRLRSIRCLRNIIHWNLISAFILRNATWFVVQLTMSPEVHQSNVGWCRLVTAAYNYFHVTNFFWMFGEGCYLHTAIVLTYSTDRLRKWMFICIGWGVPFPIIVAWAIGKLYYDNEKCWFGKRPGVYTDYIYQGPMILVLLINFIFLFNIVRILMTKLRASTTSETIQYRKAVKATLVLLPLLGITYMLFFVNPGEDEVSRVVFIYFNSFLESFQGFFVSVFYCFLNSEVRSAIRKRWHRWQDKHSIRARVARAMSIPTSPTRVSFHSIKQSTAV
Kind of assay: CRF1R agonist activation (EC50 / Emax), called comparative CRF binding. The format is cell-based. The settings on record: for Emax: read-out: CRF1R Emax; for pEC50: read-out: CRF1R EC50. The source says:
(§1) The pharmacological activity and selectivity of the peptides of present invention can be determined using published test procedures. See, e.g, U.S. patent application Ser. No. 09/799,978 (now issued U.S. Pat. No. 6,670,140). Because CRF2R and CRF1R are homologous proteins, it is expected that a certain proportion of agonists for CRF2R will also function as agonists of CRF1R. As discussed above, activation of CRF1R induces activation of the HPA axis since increased corticosteroid production leads to skeletal muscle atrophy. In most cases in which an increase in muscle mass or function is desired, it is not desirable to activate the HPA axis.
(§2) Cell-based assays include the steps of contacting cells which express CRF1R or CRF2R with a peptide of the present invention or control and measuring activation of the CRFR by measuring the expression or activity of components of the CRFR signal transduction pathways.
(§3) For example, after contact with a peptide of the present invention, lysates of the cells can be prepared and assayed for induction of cAMP. cAMP is induced in response to Gαs activation. Because Gαs is activated by receptors other than CRFR and because a test peptide may be exerting its effect through CRFRs or by another mechanism, two control comparisons are relevant for determining whether the peptide increases levels of cAMP via activation of a CRFR. One control compares the cAMP level of cells contacted with the peptide and the cAMP level of cells contacted with a control compound (i.e., the vehicle in which the peptide is dissolved).
(§4) In one example, cAMP induction is measured with the use of DNA constructs containing the cAMP responsive element linked to any of a variety of reporter genes can be introduced into cells expressing CRFRs. Such reporter genes include, but are not limited to, chloramphenicol acetyltransferase (CAT), luciferase, glucuronide synthetase, growth hormone, fluorescent proteins (e.g., Green Fluorescent Protein), or alkaline phosphatase. Following exposure of the cells to the peptide, the level of reporter gene expression can be quantitated to determine the peptide's ability to increase cAMP levels and thus determine the peptide's ability to activate the CRFR.
(§5) In addition to using cells expressing full length CRFRs, cells can be engineered which express CRFRs containing the ligand binding domain of the receptor coupled to, or physically modified to contain, reporter elements or to interact with signaling proteins. For example, a wild type CRFR or CRFR fragment can be fused to a G-protein resulting in activation of the fused G-protein upon agonist binding to the CRFR portion of the fusion protein. […] In addition, alternative pathways for induction of the CRE reporter could be eliminated to reduce basal levels.

Assay [2] concerns the target T2, CRF2R (Homo sapiens, UniProt Q13324).
T2 sequence (Q13324 1-411): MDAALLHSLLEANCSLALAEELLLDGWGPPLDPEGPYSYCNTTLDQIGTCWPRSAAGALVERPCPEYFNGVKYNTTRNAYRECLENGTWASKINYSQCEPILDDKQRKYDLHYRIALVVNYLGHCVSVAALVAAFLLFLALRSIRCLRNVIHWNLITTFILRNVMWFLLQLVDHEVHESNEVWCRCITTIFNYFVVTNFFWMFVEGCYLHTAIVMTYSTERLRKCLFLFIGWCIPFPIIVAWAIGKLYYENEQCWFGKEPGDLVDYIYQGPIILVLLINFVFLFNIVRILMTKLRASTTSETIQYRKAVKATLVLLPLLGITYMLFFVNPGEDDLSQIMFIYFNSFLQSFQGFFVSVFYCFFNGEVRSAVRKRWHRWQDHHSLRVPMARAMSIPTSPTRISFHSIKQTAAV
The experiment in a line: CRF2R agonist activation (EC50 / Emax), called comparative CRF binding. Format: cell-based. The note with it: read-out: CRF2R Emax.
From the text: as §1, §2, §3, §4, §5

One may read the Emax as the size of the effect at its maximum, as opposed to the concentration needed. In the case of `CC[C@H](C)[C@H](N)C(=O)N[C@H](C(=O)N[C@@H](CC(C)C)C(=O)N[C@@H](CO)C(=O)N[C@@H](CC(C)C)C(=O)N[C@@H](CC(=O)O)C(=O)N[C@H](C(=O)N1CCC[C@H]1C(=O)N[C@H](C(=O)NCC(=O)N[C@@H](CC(C)C)C(=O)N[C@@H](CC(C)C)C(=O)N[C@@H](CCC(N)=O)C(=O)N[C@@H](CCC(=O)O)C(=O)N[C@@H](CC(C)C)C(=O)N[C@@H](CC(C)C)C(=O)N[C@@H](CCC(=O)O)C(=O)N[C@@H](CCSC)C(=O)N[C@@H](C)C(=O)N[C@@H](CCCNC(=N)N)C(=O)N[C@@H](C)C(=O)N[C@@H](CCC(=O)O)C(=O)N[C@@H](CCC(N)=O)C(=O)N[C@@H](CC(C)C)C(=O)N[C@@H](C)C(=O)N[C@@H](CCC(N)=O)C(=O)N[C@@H](CCC(N)=O)C(=O)N[C@@H](C)C(=O)N[C@@H](Cc1c[nH]cn1)C(=O)N[C@@H](CO)C(=O)N[C@@H](CC(N)=O)C(=O)N[C@@H](CCCNC(=N)N)C(=O)N[C@@H](CCCCN)C(=O)N[C@@H](CC(C)C)C(=O)N[C@@H](CCSC)C(=O)N[C@@H](CCC(=O)O)C(=O)N[C@H](C(=O)N[C@H](C(N)=O)[C@@H](C)CC)[C@@H](C)CC)[C@@H](C)CC)C(C)C)C(C)C` [compound 1] (H-IVLSLDVPIGLLQELLEMARAEQLAQQAHSNRKLMEII-NH2; N-terminus assumed), the figures for the maximal response (Emax) in assay [1] and in assay [2] were 64% and 100%, respectively.

Consider `CC[C@H](C)[C@H](N)C(=O)N[C@H](C(=O)N[C@@H](CC(C)C)C(=O)N[C@@H](CO)C(=O)N[C@@H](CC(C)C)C(=O)N[C@@H](CC(=O)O)C(=O)N[C@H](C(=O)N1CCC[C@H]1C(=O)N[C@H](C(=O)NCC(=O)N[C@@H](CC(C)C)C(=O)N[C@@H](CC(C)C)C(=O)N[C@@H](CCC(N)=O)C(=O)N[C@H](C(=O)N[C@@H](CC(C)C)C(=O)N[C@@H](CC(C)C)C(=O)N[C@@H](CCC(=O)O)C(=O)N[C@@H](CCC(N)=O)C(=O)N[C@@H](CCC(=O)O)C(=O)N[C@@H](CCCCN)C(=O)N[C@@H](C)C(=O)N[C@@H](CCCNC(=N)N)C(=O)N[C@@H](C)C(=O)N[C@@H](C)C(=O)N[C@@H](CCCNC(=N)N)C(=O)N[C@@H](CCC(=O)O)C(=O)N[C@@H](CCC(N)=O)C(=O)N[C@@H](C)C(=O)N[C@H](C(=O)N[C@H](C(=O)N[C@@H](CC(N)=O)C(=O)N[C@@H](C)C(=O)N[C@@H](CCCNC(=N)N)C(=O)N[C@H](C(=O)N[C@@H](CC(C)C)C(=O)N[C@@H](C)C(=O)N[C@@H](CCCNC(=N)N)C(=O)N[C@H](C(N)=O)C(C)C)[C@@H](C)CC)[C@@H](C)O)[C@@H](C)O)[C@@H](C)CC)[C@@H](C)CC)C(C)C)C(C)C` [compound 107] (H-IVLSLDVPIGLLQILLEQEKARAAREQATTNARILARV-NH2; N-terminus assumed), for which the maximum response (Emax) in assay [2] is 87.9%.

The term pEC50 denotes −log10 of the EC50, conventionally taken in molar units. Turning to `CC[C@H](C)[C@H](N)C(=O)N[C@H](C(=O)N[C@@H](CC(C)C)C(=O)N[C@@H](CO)C(=O)N[C@@H](CC(C)C)C(=O)N[C@@H](CC(=O)O)C(=O)N[C@H](C(=O)N1CCC[C@H]1C(=O)N[C@H](C(=O)NCC(=O)N[C@@H](CC(C)C)C(=O)N[C@@H](CC(C)C)C(=O)N[C@@H](CCC(N)=O)C(=O)N[C@H](C(=O)N[C@@H](CC(C)C)C(=O)N[C@@H](CC(C)C)C(=O)N[C@@H](CCC(=O)O)C(=O)N[C@@H](CCC(N)=O)C(=O)N[C@@H](C)C(=O)N[C@@H](CCCCN)C(=O)N[C@@H](C)C(=O)N[C@@H](CCCNC(=N)N)C(=O)N[C@@H](C)C(=O)N[C@@H](C)C(=O)N[C@@H](CCCNC(=N)N)C(=O)N[C@@H](CCC(=O)O)C(=O)N[C@@H](CCC(N)=O)C(=O)N[C@@H](C)C(=O)N[C@H](C(=O)N[C@H](C(=O)N[C@@H](CC(N)=O)C(=O)N[C@@H](C)C(=O)N[C@@H](CCCNC(=N)N)C(=O)N[C@H](C(=O)N[C@@H](CC(C)C)C(=O)N[C@@H](C)C(=O)N[C@@H](CCCNC(=N)N)C(=O)N[C@H](C(N)=O)C(C)C)[C@@H](C)CC)[C@@H](C)O)[C@@H](C)O)[C@@H](C)CC)[C@@H](C)CC)C(C)C)C(C)C` [compound 127] (H-IVLSLDVPIGLLQILLEQAKARAAREQATTNARILARV-NH2; N-terminus assumed), the pEC50 in assay [1] is < 7.00.

`CC[C@H](C)[C@H](N)C(=O)N[C@H](C(=O)N[C@@H](CC(C)C)C(=O)N[C@@H](CO)C(=O)N[C@@H](CC(C)C)C(=O)N[C@@H](CC(=O)O)C(=O)N[C@H](C(=O)N1CCC[C@H]1C(=O)N[C@H](C(=O)NCC(=O)N[C@@H](CC(C)C)C(=O)N[C@@H](CC(C)C)C(=O)N[C@@H](CCC(N)=O)C(=O)N[C@H](C(=O)N[C@@H](CC(C)C)C(=O)N[C@@H](CC(C)C)C(=O)N[C@@H](CCC(=O)O)C(=O)N[C@@H](CCC(N)=O)C(=O)N[C@H](C(=O)N[C@@H](CCCCN)C(=O)N[C@@H](C)C(=O)N[C@@H](CCCNC(=N)N)C(=O)N[C@@H](C)C(=O)N[C@@H](C)C(=O)N[C@@H](CCCNC(=N)N)C(=O)N[C@@H](CCC(=O)O)C(=O)N[C@@H](CCC(N)=O)C(=O)N[C@@H](C)C(=O)N[C@H](C(=O)N[C@H](C(=O)N[C@@H](CC(N)=O)C(=O)N[C@@H](C)C(=O)N[C@@H](CCCNC(=N)N)C(=O)N[C@H](C(=O)N[C@@H](CC(C)C)C(=O)N[C@@H](C)C(=O)N[C@@H](CCCNC(=N)N)C(=O)N[C@H](C(N)=O)C(C)C)[C@@H](C)CC)[C@@H](C)O)[C@@H](C)O)[C@@H](C)O)[C@@H](C)CC)[C@@H](C)CC)C(C)C)C(C)C` [compound 129] (H-IVLSLDVPIGLLQILLEQTKARAAREQATTNARILARV-NH2; N-terminus assumed): in assay [1], the pEC50 was < 7.00.

On to `CC[C@H](C)[C@H](N)C(=O)N[C@H](C(=O)N[C@@H](CC(C)C)C(=O)N[C@@H](CO)C(=O)N[C@@H](CC(C)C)C(=O)N[C@@H](CC(=O)O)C(=O)N[C@H](C(=O)N1CCC[C@H]1C(=O)N[C@H](C(=O)NCC(=O)N[C@@H](CC(C)C)C(=O)N[C@@H](CC(C)C)C(=O)N[C@@H](CCC(N)=O)C(=O)N[C@H](C(=O)N[C@@H](CC(C)C)C(=O)N[C@@H](CC(C)C)C(=O)N[C@@H](CCC(=O)O)C(=O)N[C@@H](CCC(N)=O)C(=O)N[C@@H](C)C(=O)N[C@@H](CCCNC(=N)N)C(=O)N[C@@H](C)C(=O)N[C@@H](CCCNC(=N)N)C(=O)N[C@@H](C)C(=O)N[C@@H](C)C(=O)N[C@@H](CCCNC(=N)N)C(=O)N[C@@H](CCC(=O)O)C(=O)N[C@@H](CCC(N)=O)C(=O)N[C@@H](C)C(=O)N[C@H](C(=O)N[C@H](C(=O)N[C@@H](CC(N)=O)C(=O)N[C@@H](C)C(=O)N[C@@H](CCCNC(=N)N)C(=O)N[C@H](C(=O)N[C@@H](CC(C)C)C(=O)N[C@@H](C)C(=O)N[C@@H](CCCNC(=N)N)C(=O)N[C@H](C(=O)N[C@@H](CCSC)C(N)=O)C(C)C)[C@@H](C)CC)[C@@H](C)O)[C@@H](C)O)[C@@H](C)CC)[C@@H](C)CC)C(C)C)C(C)C` [compound 356] (H-IVLSLDVPIGLLQILLEQARARAAREQATTNARILARVM-NH2), for which the Emax in assay [1] stood at 9%.

For “SQEPPISLDLPLELLREVLEMTKADQLAQQAHSNRKLLDIA-NH2 [compound 89]”, the maximum response (Emax) in assay [2] amounted to 12.7%.
